Data on one compound can be found in patent publication US20250206708A1, “AN OXAZIRIDINE PLATFORM FOR TARGETING FUNCTIONAL ALLOSTERIC METHIONINE SITES” (Novartis AG, priority 2022, published 2025).

The structures appear in SMILES notation.

Test [1] addresses CDK4 (Homo sapiens, UniProt P11802). Put plainly: ADP-Glo luciferase-based in vitro activity assay on purified CDK4. The test is classed as biochemical. As to conditions: Rb (aa 773-928) substrate, read-out: IC50, inhibition of activity of purified CDK4 protein. Here is the method:
Effects of Compound 148 on in vitro activity of CDK4 were determined via commercially available ADP-Glo assay (Promega; cat no.V6930). Isolated CDK4 was provided by Novartis. Retinoblastoma protein (aa 773-928) was obtained from commercial sources (Millipore Sigma; 12-439). The assay kit protocol was followed as directed, with the addition of a quench step (addition of 1 μL of 25 μM N-Acetyl methionine) after incubation of protein with oxaziridine ligand.

For test [2], the system named is MCF-7 cells. Kind of test: Cell Counting Kit-8 cell viability assay in MCF-7. The test is classed as cell-based. The following applies: Homo sapiens, MCF7; 24 h, CCK-8; read-out: EC50, decrease in cell viability of MCF-7 cells. The method, then: All cells were maintained as a monolayer in exponential growth at 37° C. in a 5% CO2 atmosphere. MCF-7 and HepG2 were maintained in Dulbecco's Modified Eagle Medium (DMEM, Gibco) supplemented with 10% (v/v) fetal bovine serum (FBS, Seradigm). HT-29 and SW-48 were maintained in RPMI 1640 Medium (Gibco) supplemented with 10% FBS.
All cells dosed with oxaziridine were treated using a 2% DMSO/media solution. Oxaziridines were dissolved in DMSO and used the same day as treatment. Media was removed from cells and replaced with fresh media containing oxaziridine in DMSO for a final concentration of 2% DMSO. Control wells were treated with 2% DMSO/media. Cells were incubated at 37° C. in a 5% CO2 atmosphere.
Commercially available Cell Counting Kit-8 Assay (Dojindo) was used to investigate cell viability after treatment with oxaziridines. Cells were plated in 96-well plates (black/clear bottom; Thermo Fisher) and grown to 75% confluency. Media was removed and replaced with media containing 2% DMSO and indicated compound concentration. Cells were allowed to incubate 24 h. To assess viability, media was removed and replaced with 100 μL media containing 10% CCK-8 assay solution. Plates were incubated at 37° C. in a 5% CO2 atmosphere for 1-4 h until an orange color was visible. Viability was quantified via plate reader (monofilter) with absorption at 450 nm.

For test [3], the system named is CDK4. Put plainly: 2D gel electrophoresis western blot of CDK4 T172 phosphorylation in MCF-7. It is filed as cell-based, human. As to conditions: MCF-7 cells, 2D SDS-PAGE, spot 3 normalized to spot 1. Here is the method:
Serum-synchronized MCF-7 cells were treated with compound according to method outlined. Cells were monitored by eye for cell death and harvested once high-dose cells were round but not detached, about 2 hours. Media was removed and cells washed with HBSS. Trypsin was added to detach cells. Cells were transferred to a falcon tube containing 7 mL of complete DMEM and centrifuged at 1200 rpm for 2 min. Supernatant discarded and pellet gently resuspended in 1 mL PBS and transferred to an Eppendorf tube. Sample was spun once more, after which the pellet was quickly rinsed with ice cold MQ and spun a final time. Pellet was aspirated, flash frozen with LN2, and stored at −80° C.
SCell pellets were solubilized in cold 30 mM Tris buffer pH 8.5 containing 7 M urea, 2 M thiourea and 4% CHAPS with continuous vortexing until unfrozen and then kept agitated for 20 min. After centrifugation at 15,700 g for 10 min at 4° C., proteins were quantified. An equal volume of 2-D-sample buffer (7 M urea, 2 M thiourea, 2% CHAPS, 0.4% 3-10 Pharmalytes, and 0.4% DTT) was added to samples normalized to 150 μg proteins. […] The proteins were detected using Western Lightning Plus ECL (Perkin Elmer) and viewed in Fusion FX gel documentation system using the Solo7S camera (Vilber Lourmat, France).

Sequence of CDK4 (Homo sapiens, UniProt P11802) (P11802 whole entry, the tested form may be a part): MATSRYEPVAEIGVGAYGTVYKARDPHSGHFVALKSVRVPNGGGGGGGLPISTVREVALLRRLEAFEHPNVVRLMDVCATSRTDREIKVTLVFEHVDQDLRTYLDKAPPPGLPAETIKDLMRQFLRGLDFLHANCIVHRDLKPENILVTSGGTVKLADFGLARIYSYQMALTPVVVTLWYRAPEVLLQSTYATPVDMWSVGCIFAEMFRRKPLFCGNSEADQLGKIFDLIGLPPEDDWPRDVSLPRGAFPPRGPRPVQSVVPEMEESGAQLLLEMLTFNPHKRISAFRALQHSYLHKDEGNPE
Sequence of CDK4 (Homo sapiens, UniProt P11802) (P24385 whole entry partner, the tested form may be a part): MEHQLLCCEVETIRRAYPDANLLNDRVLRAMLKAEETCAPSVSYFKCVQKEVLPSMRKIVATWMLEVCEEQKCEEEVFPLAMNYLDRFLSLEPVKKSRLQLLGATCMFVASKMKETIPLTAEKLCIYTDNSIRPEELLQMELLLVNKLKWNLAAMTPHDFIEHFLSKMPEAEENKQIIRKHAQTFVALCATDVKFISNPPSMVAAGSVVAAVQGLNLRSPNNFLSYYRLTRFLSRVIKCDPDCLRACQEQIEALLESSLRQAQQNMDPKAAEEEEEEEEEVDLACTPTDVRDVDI

With `O=C(N1CC2COCC2C1)N1OC1c1ccccc1` (stereo not drawn) [Compound 148], the IC50 in test [1] is roughly 0.2 µM. Moreover, the EC50 in test [2] was 330 µM. Also, the “T172 phosphorylation status on CDK4” value in test [3] is on record as “diminish T172 phosphorylation status on CDK4 in MCF-7 cells in a dose-dependent manner”.
